Patent US7792665B2, “Method for designing a compound based on the three dimensional structure of phosphoinositide dependent protein kinase 1 (PDK1)” (Medical Research Council, priority 2002, dated 2010)
Numbering of substitutions follows the chain as printed. Entries after “also recorded” stand apart in the source; their conditions may differ.

What was measured:
[1] = target: S6K-pHM, phosphopeptide comprising the hydrophobic motif of S6K1; assay: SPR (BiaCore), rounded value
[2] = target: S6K-pHM, phosphopeptide comprising the hydrophobic motif of S6K1; assay: SPR (BiaCore), against wild type PDK1
[3] = target: S6K-pHM, phosphopeptide comprising the hydrophobic motif of S6K1; assay: SPR (BiaCore 3000), biotinylated S6K-pHM on SA chip, GST-PDK1 injected at 2-2150 nM, steady state, apparent Kd
[4] = target: MSK1 (Homo sapiens, UniProt O75582); assay: Kinase panel assay, MSK1; type: biochemical; settings: 1 μM inhibitor, 0.1 mM ATP, average of triplicate
Sequence of MSK1 (O75582 whole entry): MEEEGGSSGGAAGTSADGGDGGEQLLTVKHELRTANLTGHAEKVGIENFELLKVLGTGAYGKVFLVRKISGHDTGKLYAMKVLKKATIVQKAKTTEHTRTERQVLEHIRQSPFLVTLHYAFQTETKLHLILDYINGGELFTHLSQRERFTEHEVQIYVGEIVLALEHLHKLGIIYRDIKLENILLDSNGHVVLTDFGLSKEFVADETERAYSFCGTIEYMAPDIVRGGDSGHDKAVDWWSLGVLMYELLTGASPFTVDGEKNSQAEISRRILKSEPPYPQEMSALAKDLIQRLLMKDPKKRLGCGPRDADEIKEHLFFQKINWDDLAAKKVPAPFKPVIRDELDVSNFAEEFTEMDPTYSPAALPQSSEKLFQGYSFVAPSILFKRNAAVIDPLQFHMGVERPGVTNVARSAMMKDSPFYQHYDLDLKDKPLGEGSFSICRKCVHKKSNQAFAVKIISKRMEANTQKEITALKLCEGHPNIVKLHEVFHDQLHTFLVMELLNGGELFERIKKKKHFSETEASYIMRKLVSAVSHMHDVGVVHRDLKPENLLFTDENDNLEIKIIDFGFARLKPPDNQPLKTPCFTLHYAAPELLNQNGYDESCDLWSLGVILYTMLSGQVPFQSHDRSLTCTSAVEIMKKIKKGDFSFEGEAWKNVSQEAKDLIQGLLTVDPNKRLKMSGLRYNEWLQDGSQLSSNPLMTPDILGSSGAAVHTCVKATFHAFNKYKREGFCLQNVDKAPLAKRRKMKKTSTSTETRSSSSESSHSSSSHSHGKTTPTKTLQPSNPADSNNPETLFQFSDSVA

[5] = target: SGK1 (Homo sapiens, UniProt O00141); assay: Kinase panel assay, SGK1; type: biochemical; settings: 1 μM inhibitor, 0.1 mM ATP, average of triplicate
Sequence of SGK1 (O00141 whole entry): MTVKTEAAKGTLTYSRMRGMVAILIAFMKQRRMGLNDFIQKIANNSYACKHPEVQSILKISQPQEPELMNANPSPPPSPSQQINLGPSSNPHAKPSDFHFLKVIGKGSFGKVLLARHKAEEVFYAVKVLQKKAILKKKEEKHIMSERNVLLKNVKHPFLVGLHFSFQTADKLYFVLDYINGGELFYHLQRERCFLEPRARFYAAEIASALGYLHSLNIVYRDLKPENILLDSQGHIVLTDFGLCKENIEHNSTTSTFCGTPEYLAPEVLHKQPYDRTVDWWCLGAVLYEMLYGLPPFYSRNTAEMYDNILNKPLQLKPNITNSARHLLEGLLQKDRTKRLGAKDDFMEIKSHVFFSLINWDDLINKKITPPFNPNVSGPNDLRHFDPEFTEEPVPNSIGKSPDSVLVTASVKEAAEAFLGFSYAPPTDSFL

[6] = system: CK1; assay: Kinase panel assay, CK1; type: biochemical; settings: 1 μM inhibitor, 0.1 mM ATP, average of triplicate
[7] = target: SAPK2β/p38β2 (Homo sapiens, UniProt Q15759); assay: Kinase panel assay, SAPK2β/p38β2; type: biochemical; settings: 1 μM inhibitor, 0.1 mM ATP, average of triplicate
Sequence of SAPK2β/p38β2 (Q15759 whole entry): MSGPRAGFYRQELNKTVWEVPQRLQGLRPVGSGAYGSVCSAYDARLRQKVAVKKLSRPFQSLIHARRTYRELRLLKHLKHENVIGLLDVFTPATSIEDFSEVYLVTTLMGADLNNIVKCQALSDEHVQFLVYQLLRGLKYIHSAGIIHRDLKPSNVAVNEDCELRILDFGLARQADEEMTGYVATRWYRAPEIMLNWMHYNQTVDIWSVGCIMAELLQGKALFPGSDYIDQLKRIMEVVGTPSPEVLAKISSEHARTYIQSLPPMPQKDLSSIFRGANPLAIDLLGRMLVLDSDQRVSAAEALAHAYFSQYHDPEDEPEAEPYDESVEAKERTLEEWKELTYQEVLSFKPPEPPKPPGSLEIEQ

[8] = target: SAPK4/p38δ (Homo sapiens, UniProt O15264); assay: Kinase panel assay, SAPK4/p38δ; type: biochemical; settings: 1 μM inhibitor, 0.1 mM ATP, average of triplicate
Sequence of SAPK4/p38δ (O15264 whole entry): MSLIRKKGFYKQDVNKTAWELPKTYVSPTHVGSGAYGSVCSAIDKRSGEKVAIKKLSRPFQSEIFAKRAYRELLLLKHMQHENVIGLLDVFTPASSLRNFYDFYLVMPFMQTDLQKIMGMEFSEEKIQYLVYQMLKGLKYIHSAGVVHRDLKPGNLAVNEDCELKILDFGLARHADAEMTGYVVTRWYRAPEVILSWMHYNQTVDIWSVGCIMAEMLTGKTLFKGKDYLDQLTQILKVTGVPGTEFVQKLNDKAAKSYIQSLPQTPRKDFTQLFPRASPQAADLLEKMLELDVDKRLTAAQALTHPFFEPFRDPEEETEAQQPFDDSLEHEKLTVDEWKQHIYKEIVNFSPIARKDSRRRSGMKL

[9] = target: MAPKAP-K1a (Homo sapiens, UniProt Q15418); assay: Kinase panel assay, MAPKAP-K1a; type: biochemical; settings: 1 μM inhibitor, 0.1 mM ATP, average of triplicate
Sequence of MAPKAP-K1a (Q15418 whole entry, species assumed): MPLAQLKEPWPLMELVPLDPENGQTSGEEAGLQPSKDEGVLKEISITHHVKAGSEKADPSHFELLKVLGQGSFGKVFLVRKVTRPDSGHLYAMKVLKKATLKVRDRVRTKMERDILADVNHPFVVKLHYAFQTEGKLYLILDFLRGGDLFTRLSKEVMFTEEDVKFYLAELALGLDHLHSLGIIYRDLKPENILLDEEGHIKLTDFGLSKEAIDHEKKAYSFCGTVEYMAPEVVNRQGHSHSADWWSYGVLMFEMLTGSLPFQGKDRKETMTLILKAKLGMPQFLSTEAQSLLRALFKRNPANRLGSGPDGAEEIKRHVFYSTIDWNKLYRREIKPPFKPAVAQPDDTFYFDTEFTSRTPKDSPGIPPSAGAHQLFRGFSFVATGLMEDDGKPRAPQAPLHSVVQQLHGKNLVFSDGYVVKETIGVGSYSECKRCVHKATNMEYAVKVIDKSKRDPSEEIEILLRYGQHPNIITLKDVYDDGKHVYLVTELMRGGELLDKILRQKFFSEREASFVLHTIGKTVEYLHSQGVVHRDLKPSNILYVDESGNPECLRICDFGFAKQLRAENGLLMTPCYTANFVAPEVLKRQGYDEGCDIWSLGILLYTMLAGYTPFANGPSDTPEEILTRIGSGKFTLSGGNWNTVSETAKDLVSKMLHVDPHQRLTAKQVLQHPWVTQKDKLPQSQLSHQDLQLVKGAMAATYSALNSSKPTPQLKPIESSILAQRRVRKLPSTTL

[10] = target: SAPK2α/p38 (Homo sapiens, UniProt Q16539); assay: Kinase panel assay, SAPK2α/p38; type: biochemical; settings: 1 μM inhibitor, 0.1 mM ATP, average of triplicate
Sequence of SAPK2α/p38 (Q16539 whole entry): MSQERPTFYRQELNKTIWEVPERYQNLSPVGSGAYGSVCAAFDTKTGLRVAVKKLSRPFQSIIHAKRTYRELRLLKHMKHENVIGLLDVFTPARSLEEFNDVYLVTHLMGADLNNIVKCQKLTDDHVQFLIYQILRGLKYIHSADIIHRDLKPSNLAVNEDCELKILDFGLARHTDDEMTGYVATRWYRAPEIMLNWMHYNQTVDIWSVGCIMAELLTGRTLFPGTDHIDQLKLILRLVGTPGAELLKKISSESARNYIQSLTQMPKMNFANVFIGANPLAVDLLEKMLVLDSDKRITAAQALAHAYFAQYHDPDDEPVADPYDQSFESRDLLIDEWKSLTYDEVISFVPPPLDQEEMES

[11] = target: T1, PDK1 (Homo sapiens, UniProt O15530); assay: PDK1 protein kinase assay with PDK1tide substrate and [γ-32P]ATP; type: biochemical; settings: 1 μM inhibitor, 0.1 mM ATP, average of triplicate
T1 sequence (O15530 1-556): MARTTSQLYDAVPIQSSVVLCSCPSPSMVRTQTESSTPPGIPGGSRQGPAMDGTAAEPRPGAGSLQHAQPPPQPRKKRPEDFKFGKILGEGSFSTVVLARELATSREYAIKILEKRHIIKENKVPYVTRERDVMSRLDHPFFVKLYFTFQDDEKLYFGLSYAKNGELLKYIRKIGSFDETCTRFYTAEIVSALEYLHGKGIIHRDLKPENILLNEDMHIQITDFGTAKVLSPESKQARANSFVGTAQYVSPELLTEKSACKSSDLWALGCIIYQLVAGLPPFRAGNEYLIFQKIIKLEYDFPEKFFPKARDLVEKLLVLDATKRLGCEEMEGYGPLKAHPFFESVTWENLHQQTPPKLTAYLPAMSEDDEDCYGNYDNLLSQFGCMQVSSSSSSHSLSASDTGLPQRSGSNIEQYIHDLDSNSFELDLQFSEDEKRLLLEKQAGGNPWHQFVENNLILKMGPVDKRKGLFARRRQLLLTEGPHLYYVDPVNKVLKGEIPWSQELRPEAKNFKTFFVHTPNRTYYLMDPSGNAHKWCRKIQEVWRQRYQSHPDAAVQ
Experimental: (§1) Other protein kinases employed in Table 5, were assayed as described previously.
A structure-based sequence alignment of known kinase structures was obtained from, which was used to validate the sequence-based sequence alignment (Table 5).

[12] = system: AMPK; assay: Kinase panel assay, AMPK; type: biochemical; settings: 1 μM inhibitor, 0.1 mM ATP, average of triplicate
Experimental: as §1

[13] = target: PRAK (Homo sapiens, UniProt Q8IW41); assay: Kinase panel assay, PRAK; type: biochemical; settings: 1 μM inhibitor, 0.1 mM ATP, average of triplicate
[14] = target: T2, CHK1 (Homo sapiens, UniProt O14757); assay: Kinase panel assay, CHK1; type: biochemical; settings: 1 μM inhibitor, 0.1 mM ATP, average of triplicate
T2 sequence (O14757 1-476): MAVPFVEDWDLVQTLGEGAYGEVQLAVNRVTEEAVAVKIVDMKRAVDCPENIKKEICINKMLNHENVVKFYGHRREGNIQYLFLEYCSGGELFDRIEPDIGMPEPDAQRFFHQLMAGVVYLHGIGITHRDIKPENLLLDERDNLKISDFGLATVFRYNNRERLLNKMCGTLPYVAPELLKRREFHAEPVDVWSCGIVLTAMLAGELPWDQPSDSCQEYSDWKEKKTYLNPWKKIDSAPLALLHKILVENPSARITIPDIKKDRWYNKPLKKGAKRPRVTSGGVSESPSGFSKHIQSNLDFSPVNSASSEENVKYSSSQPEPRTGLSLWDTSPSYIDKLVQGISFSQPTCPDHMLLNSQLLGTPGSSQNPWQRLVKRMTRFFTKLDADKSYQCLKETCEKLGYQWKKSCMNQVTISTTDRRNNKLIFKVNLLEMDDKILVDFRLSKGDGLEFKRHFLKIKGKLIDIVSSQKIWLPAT

[15] = target: JNKSAPK1c (Homo sapiens, UniProt P45983); assay: Kinase panel assay, JNKSAPK1c; type: biochemical; settings: 1 μM inhibitor, 0.1 mM ATP, average of triplicate
Sequence of JNKSAPK1c (P45983 whole entry): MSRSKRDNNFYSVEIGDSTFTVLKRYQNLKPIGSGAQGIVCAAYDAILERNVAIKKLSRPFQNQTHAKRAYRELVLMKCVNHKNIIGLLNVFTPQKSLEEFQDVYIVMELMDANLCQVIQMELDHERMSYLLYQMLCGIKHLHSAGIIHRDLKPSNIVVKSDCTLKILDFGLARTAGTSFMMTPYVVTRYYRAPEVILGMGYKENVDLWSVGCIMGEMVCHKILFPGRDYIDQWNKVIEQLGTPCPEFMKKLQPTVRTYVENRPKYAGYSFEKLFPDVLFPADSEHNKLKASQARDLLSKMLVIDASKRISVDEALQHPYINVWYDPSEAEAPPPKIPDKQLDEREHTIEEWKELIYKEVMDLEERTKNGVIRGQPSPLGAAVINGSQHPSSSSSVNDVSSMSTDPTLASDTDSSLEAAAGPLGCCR

[16] = target: CK2 (Homo sapiens, UniProt P68400); assay: Kinase panel assay, CK2; type: biochemical; settings: 1 μM inhibitor, 0.1 mM ATP, average of triplicate
Sequence of CK2 (P68400 whole entry): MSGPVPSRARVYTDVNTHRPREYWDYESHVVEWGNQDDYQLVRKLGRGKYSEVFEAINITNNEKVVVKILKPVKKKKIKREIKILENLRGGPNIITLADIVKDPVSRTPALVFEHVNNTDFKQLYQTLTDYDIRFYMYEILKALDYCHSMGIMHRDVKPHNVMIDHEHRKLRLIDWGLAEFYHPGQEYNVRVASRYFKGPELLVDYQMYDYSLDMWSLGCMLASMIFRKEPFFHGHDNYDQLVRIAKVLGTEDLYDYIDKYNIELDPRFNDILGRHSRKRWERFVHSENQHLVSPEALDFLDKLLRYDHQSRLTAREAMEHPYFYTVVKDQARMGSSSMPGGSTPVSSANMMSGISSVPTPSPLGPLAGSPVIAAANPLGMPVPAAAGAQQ

[17] = target: MKK1 (Homo sapiens, UniProt Q02750); assay: Kinase panel assay, MKK1; type: biochemical; settings: 1 μM inhibitor, 0.1 mM ATP, average of triplicate
Sequence of MKK1 (Q02750 whole entry, species assumed): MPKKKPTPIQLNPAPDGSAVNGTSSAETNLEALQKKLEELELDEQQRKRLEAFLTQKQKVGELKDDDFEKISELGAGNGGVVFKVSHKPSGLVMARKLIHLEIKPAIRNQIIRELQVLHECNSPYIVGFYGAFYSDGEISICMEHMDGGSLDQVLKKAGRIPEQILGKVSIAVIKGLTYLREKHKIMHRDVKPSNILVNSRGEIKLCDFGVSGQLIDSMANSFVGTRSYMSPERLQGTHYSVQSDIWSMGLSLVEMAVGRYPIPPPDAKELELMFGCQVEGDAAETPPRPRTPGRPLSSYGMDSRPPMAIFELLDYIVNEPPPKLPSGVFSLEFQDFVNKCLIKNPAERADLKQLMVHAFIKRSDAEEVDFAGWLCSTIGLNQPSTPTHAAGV

[18] = target: NEK6 (Homo sapiens, UniProt Q9HC98); assay: Kinase panel assay, NEK6; type: biochemical; settings: 1 μM inhibitor, 0.1 mM ATP, average of triplicate
Sequence of NEK6 (Q9HC98 whole entry, species assumed): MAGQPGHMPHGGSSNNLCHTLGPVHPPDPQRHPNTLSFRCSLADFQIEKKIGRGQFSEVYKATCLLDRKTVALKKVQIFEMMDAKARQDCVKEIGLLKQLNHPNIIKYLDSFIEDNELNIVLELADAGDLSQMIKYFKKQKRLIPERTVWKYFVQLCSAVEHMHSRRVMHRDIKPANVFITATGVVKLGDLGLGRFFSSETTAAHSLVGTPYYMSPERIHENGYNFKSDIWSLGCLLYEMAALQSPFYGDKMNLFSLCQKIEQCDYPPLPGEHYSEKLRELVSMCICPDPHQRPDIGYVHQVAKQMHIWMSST

[19] = target: CSK (Homo sapiens, UniProt P41240); assay: Kinase panel assay, CSK; type: biochemical; settings: 1 μM inhibitor, 0.1 mM ATP, average of triplicate
[20] = target: PKBΔPH (Homo sapiens, UniProt P31749); assay: biochemical; settings: read-out: percentage of kinase activity compared to control incubations, PKBΔPH
Sequence of PKBΔPH (P31749 118-480 limits assumed, stated change not applied): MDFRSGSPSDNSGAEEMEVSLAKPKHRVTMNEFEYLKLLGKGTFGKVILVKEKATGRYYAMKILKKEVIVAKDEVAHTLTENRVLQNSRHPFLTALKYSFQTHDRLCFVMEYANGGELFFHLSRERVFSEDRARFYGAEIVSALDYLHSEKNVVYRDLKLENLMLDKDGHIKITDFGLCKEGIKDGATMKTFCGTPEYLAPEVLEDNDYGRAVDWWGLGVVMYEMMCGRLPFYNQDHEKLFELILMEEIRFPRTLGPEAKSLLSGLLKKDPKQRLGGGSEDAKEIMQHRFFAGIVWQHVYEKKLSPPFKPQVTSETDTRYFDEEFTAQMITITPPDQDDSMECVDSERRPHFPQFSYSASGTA
Experimental: as §1

[21] = target: ROCK-II (Homo sapiens, UniProt O75116); assay: Kinase panel assay, ROCK-II; type: biochemical; settings: 1 μM inhibitor, 0.1 mM ATP, average of triplicate
[22] = target: T3, wild type PDK1 (Homo sapiens, UniProt O15530); assay: Surface plasmon resonance (BiaCore) binding of hydrophobic motif peptides, wild type PDK1; set-up: made in house; host or cells: human embryonic kidney 293 cells (pEBG2T vector); settings: surface plasmon resonance
T3 sequence (O15530 1-556): T1 sequence (O15530 1-556)
Experimental: Binding and activation of wild type and mutant forms of PDK1 to a phosphopeptide derived from the hydrophobic motif of S6K1. The binding of the wild type (wt) PDK1 and indicated mutants to a phosphopeptide comprising the hydrophobic motif of S6K1 (S6K-pHM: […]*YVAPSV, where T* indicates phospho-threonine, SEQ ID NO:104) was analysed by surface plasmon resonance as described in the Materials and Methods.
A. The sensor chip SA was coated with 12RUs of the biotinylated S6K-pHM peptide and the binding was analysed following injection of 270 nM wild type PDK1, PDK1 [T148A] and PDK1 [K76A]. […] (data not shown).
B. As in A. except that binding was analysed over a range of PDK1 concentrations (2-2150 nM). The response level at the steady state binding is plotted versus the log of the PDK1 concentration. The estimated Kd was obtained by fitting the data to a sigmoid curve using Kaleidagraph software.
Binding was analysed in a BiaCore 3000 system (BiaCore AB, Stevenage, UK). Biotinylated S6K-pHM (Biotin-C12-[…](P)YVAPSV) (SEQ ID NO:104) or the non-phosphorylated form of this peptide S6K-HM was bound to an streptavidin-coated Sensor chip (SA) (12 response units, RU). 30 μl of wild type or the indicated mutant GST-PDK1 were injected at a flow rate of 30 μl/min, in buffer HBS-P (10 mM HEPES pH 7.4, 0.15M NaCl, 0.005% (by vol) polysorbate-20) supplemented with 1 mM DTT. Specific interactions between 56K-pHM and PDK1 proteins were obtained between the concentration range of 2-2150 nM PDK1. Steady state binding was determined at each concentration. Dissociation of PDK1 from the phospho-peptide was monitored over a 1 min period. Regeneration of the sensor chip surface was performed with 1{tilde over (0)} μl injections of 0.05% SDS. […] (RUmax=435). For all PDK1 construct tested, the off rates for S6Kp-HM were high in comparison to those of PIFtide binding with the time taken for 50% dissociation to occur for 56K-pHM is 30s compared to 1000s for PIFtide.

[23] = target: T4, PDK1[R131A] (Homo sapiens, UniProt O15530, R131A); assay: PDK1 catalytic activity towards T308tide, activation by peptides, PDK1[R131A]; type: biochemical; settings: high peptide concentrations
T4 construct: GST (N); made in house; host or cells: human embryonic kidney 293 cells (pEBG2T vector)
T4 sequence (O15530 1-556 R131A): T1 sequence (O15530 1-556) with R131A
Experimental: (§2) C. Activation of the indicated forms of PDK1 by 56K-pHM and S6K-HM. PDK1 activity was measured using the peptide substrate (T308tide) in the presence of the indicated concentrations of 56K-pHM (closed circles) and S6K-HM (open circles) as described in the methods. Assays were performed in triplicate and similar results obtained in 2 separate experiments. The results are the average—SD for a single experiment.
(§3) The ability of wild type and mutant PDK1 to phosphorylate the synthetic peptide T308tide ([…] ([Biondi et al., 2000]) (SEQ ID NO:108) was carried out in 30 μl assays containing 100 ng of wild type or mutant PDK1, 50 mM Tris/HCl pH 7.5, 0.1% 13-mercaptoethanol, 10 mM MgCl2, 100 μM [32γ P]ATP (200 cpm/pmol), 0.5 μM microcystin-LR, 1 mM T308tide in the presence or absence of the indicated concentrations of the 56K-pHM peptide ([…](P)YVAPSV) (SEQ ID NO:104) or 56K-HM. peptide ([…]) (SEQ ID NO:105). After incubation for 10 min at 30° C., 25 μl of the resultant mixture was spotted into P81 phosphocellulose paper (2×2 cm) and the papers washed and analysed as described previously for assays of MAP kinase. Control assays were carried out in parallel in which either PDK1, or peptide substrate were omitted; these values were always less than 5% of the activity measured in the presence of these reagents. One Unit of PDK1 activity was defined as that amount required to catalyse the phosphorylation of 1 nmol of the T308tide in 1 min.

[24] = target: T5, PDK1[K76A] (Homo sapiens, UniProt O15530, K76A); assay: PDK1 catalytic activity towards T308tide, activation by peptides, PDK1[K76A]; type: biochemical; settings: high peptide concentrations
T5 construct: made in house; host or cells: human embryonic kidney 293 cells (pEBG2T vector)
T5 sequence (O15530 1-556 K76A): T1 sequence (O15530 1-556) with K76A
Experimental: as §2
as §3, with “One Unit of PDK1 activity was defined as that amount required to catalyse the phosphorylation of 1 nmol of the T308tide in 1 min.” left out

For “GST-PDK1[K76A] (from UniProt O15530 1-556) (enzyme)”, the Kd [1] was 1.7 µM, the fold lower affinity than wild type PDK1 [2] was 3 fold and the Kd [3] was 1.74 µM.

`CN[C@@H]1C[C@H]2O[C@@](C)([C@@H]1OC)n1c3ccccc3c3c4c(c5c6ccccc6n2c5c31)C(=O)NC4` [STO, staurosporine] was tested, and the “percentage of kinase activity compared to control incubations, MSK1” value [4] was 1 ± 0%, the “percentage of kinase activity compared to control incubations, MSK1” value ([4]; listed as staurosporine) was “abolished” and the “percentage of kinase activity compared to control incubations, SGK1” value [5] was 51 ± 4%. The “percentage of kinase activity compared to control incubations, CK1” value [6] was 95 ± 11%, the “percentage of kinase activity compared to control incubations, SAPK2β/p38β2” value [7] was 84 ± 11% and the “percentage of kinase activity compared to control incubations, SAPK4/p38δ” value [8] was 40 ± 5%. The “percentage of kinase activity compared to control incubations, MAPKAP-K1a” value [9] was 18 ± 10%, the “percentage of kinase activity compared to control incubations, SAPK2α/p38” value [10] was 76 ± 4% and the “percentage of kinase activity compared to control incubations, PDK1” value [11] was 5 ± 1%. For the same compound, the “percentage of kinase activity compared to control incubations, AMPK” value [12] was 0 ± 0%, the “percentage of kinase activity compared to control incubations, PRAK” value [13] was 48 ± 1% and the “percentage of kinase activity compared to control incubations, CHK1” value [14] was 3 ± 1%. The “percentage of kinase activity compared to control incubations, JNKSAPK1c” value [15] was 91 ± 3%, the “percentage of kinase activity compared to control incubations, CK2” value [16] was 95 ± 4% and the “percentage of kinase activity compared to control incubations, MKK1” value [17] was 5 ± 8%. For the same compound, the “percentage of kinase activity compared to control incubations, NEK6” value [18] was 109 ± 2%, the “percentage of kinase activity compared to control incubations, CSK” value [19] was 25 ± 8% and the remaining activity at 1 µM [20] was 8 ± 2%. The “percentage of kinase activity compared to control incubations, ROCK-II” value [21] was 9 ± 5%.

“S6K-HM: non-phosphorylated S6K-HM peptide (SESANQVFLGFTYVAPSV)” was tested, and the “binding of wild type PDK1 to peptide” value [22] was “No detectable binding; also recorded: not detectably”, the “activation of PDK1[R131A] by non-phosphorylated peptide” value [23] was “to a similar extent as wild type PDK1” and the “activation of PDK1[K76A] by non-phosphorylated peptide” value [24] was “to a similar extent as wild type PDK1”.
